How the values were obtained:
[1] = Stability of the mixed composition by decoloration (absorbance at 400 nm); type: physicochemical; conditions: for Absorbance (400 nm): 100 mM, reacted 37° C. 10 minutes pH 5.0, TCA, supernatant incubated at 37° C. for 24 hours; for Discoloration rate (% of decoloring of hydroquinone solution): hydroquinone solution regarded as 100%, 37° C. for 24 hours
Experimental: The absorbency was measured at 400 nm and the degree of discoloring can be expressed in the ratio of the extent of arbutin solution to that of hydroquinone solution.
The formula stability of arbutin-glucosidase mixed formula compared with the hydroquinone only formula was examined by the decoloration. 100 mM arbutin and each 1, 10 and 20 unit/ml glucosidase were reacted in 1 ml of sodium acetate buffer (pH 5.0) at 37° C. for 10 minutes. The reaction was terminated by cooling down in the ice water. Then its mixed 1 ml of cold 20% Trichloroacetic acid (TCA) was added to remove glucosidase activity. The mixture was centrifuged at 12000 rpm. The supernatant solution incubated at 37° C. for 24 hours and the absorbency was measured at […]. The degree of decoloration of hydroquinone was regarded as 100% and the ratio of other samples compared to hydroquinone were calculated. As the control, 100 mM arbutin and 100 mM hydroquinone solution (sigma, USA) was used.

[2] = tested on: skin of the lower part of the volunteers' arms; assay: Occlusive patch test for primary skin irritation; type: in vivo, human; set-up: Response 24 h / Response 48 h: key to the marks not given beside the values; conditions: for skin irritation (in words): occlusive patch test
Experimental: In another preferred embodiments of this invention, the safety of this composition was tested by skin-irritation against the occlusive patch applied to healthy-adult volunteers. […] It is interpreted that the skin is more adaptable to the gradually increasing amount of irritant than the high concentration of irritant at a time.
The occlusive patch test was performed to examine skin irritation of the mixture of arbutin and glucosidase by 30 healthy adults. The test patches containing the solution of arbutin and glucosidase of preferred embodiment 2 were applied to the lower part of the volunteers' arms. After 24 hours, the patches were removed. The status of skin was observed from 30 minutes to 48 hours after removing the patches, and the degree of irritation has been classified as described in Table 3a.

Compound | Absorbance (400 nm) [1] | Discoloration rate (% of decoloring of hydroquinone solution) [1] [%] | skin irritation (in words) [2] | skin irritation (in words) ([2]; listed as hydroquinone composition) | Response 24 h ([2]; occlusive patch, 30 healthy adults, 24 h) | Response 48 h ([2]; occlusive patch, 30 healthy adults, 48 h)
OC[C@H]1O[C@@H](Oc2ccc(O)cc2)[C@H](O)[C@@H](O)[C@@H]1O [Arbutin solution, Arbutin] | 0.005 | 1.40 | – | – | – | –
Oc1ccc(O)cc1 [Hydroquinone solution, Hydroquinone] | 0.356 | 100 | very strong skin irritation | showed the positive irritation | +++ | +++

Source: patent publication US20040042984A1, “Skin whitening composition containing arbutin and glucosidase as active ingredients” (priority 2001, published 2004)
